Article PMC5764337 (PLoS ONE, 2018)

Key:
Type in all cases: biochemical
A/PR8-I222V virus NA = A/PR8-I222V virus NA (Influenza A virus (H3N2), UniProt V5P6L4, I222V)
A/PR8-S331G virus NA = A/PR8-S331G virus NA (Influenza A virus (H3N2), UniProt A0A193ACB1, S331G)
A/PR8-S331R virus NA = A/PR8-S331R virus NA (Influenza A virus (H3N2), UniProt A0A193ACB1, S331R)
B/YAM-D342S virus NA = B/YAM-D342S virus NA (Influenza B virus, UniProt Q90021, D342S)
B/YAM-A395T virus NA = B/YAM-A395T virus NA (Influenza B virus, UniProt C0LT34, A395T)
B/YAM-A395D virus NA = B/YAM-A395D virus NA (Influenza B virus, UniProt C0LT34, A395D)
B/YAM-A395V virus NA = B/YAM-A395V virus NA (Influenza B virus, UniProt A0A1W5M8K9, A395V)
[1] = read-out: NA enzyme inhibition assay (mean IC50 ± SD)

**Q.** Which “fold increase in IC50 over A/PR8-WT” value (A/PR8-I222V virus NA) does the source give for `CCC(CC)[C@H](NC(C)=O)[C@@H]1[C@H](O)[C@@H](C(=O)O)C[C@H]1N=C(N)N` [Peramivir, peramivir] here?
**A.** 0.1 ± 0.01 (1) fold

**Q.** What about the IC50 (A/PR8-I222V virus NA; [1]) of the same compound?
**A.** 0.1 nM

**Q.** And the “fold increase in IC50 over A/PR8-WT” value (A/PR8-S331G virus NA)?
**A.** 0.3 ± 0.3 (3) fold

**Q.** And the IC50 (A/PR8-S331G virus NA; [1])?
**A.** 0.3 nM

**Q.** What about the “fold increase in IC50 over A/PR8-WT” value (A/PR8-S331R virus NA) of the same compound?
**A.** 0.2 ± 0.06 (2) fold

**Q.** And the IC50 (A/PR8-S331R virus NA; [1])?
**A.** 0.2 nM

**Q.** What about the “fold increase in IC50 over B/BR/60/08” value (B/YAM-D342S virus NA) of the same compound?
**A.** 0.4 ± 0.12 (0.8) fold

**Q.** What about the IC50 (B/YAM-D342S virus NA; [1]) of the same compound?
**A.** 0.4 nM

**Q.** And the “fold increase in IC50 over B/BR/60/08” value (B/YAM-A395T virus NA)?
**A.** 0.6 ± 0.08 (1.2) fold

**Q.** What about the IC50 (B/YAM-A395T virus NA; [1]) of the same compound?
**A.** 0.6 nM

**Q.** And the “fold increase in IC50 over B/BR/60/08” value (B/YAM-A395D virus NA)?
**A.** 0.5 ± 0.36 (1) fold

**Q.** And the IC50 (B/YAM-A395D virus NA; [1])?
**A.** 0.5 nM

**Q.** And the “fold increase in IC50 over B/BR/60/08” value (B/YAM-A395V virus NA)?
**A.** 0.8 ± 0.12 (1.6) fold

**Q.** And the IC50 (B/YAM-A395V virus NA; [1])?
**A.** 0.8 nM
